From patent US20110060156A1, “Pyruvate Derivatives with Neuroprotective Effect, Process for Preparing the Same and Pharmaceutical Composition Comprising the Same” (S.H. PHARMA., LTD., priority 2008, published 2011)
Where a name gives a salt, the structure may show the parent alone.

Legend:
[1] = system: model of focal ischemic stroke (middle cerebral artery occlusion, MCAO); assay: Cerebral infarction inhibition in animal model of focal ischemic stroke (MCAO 1 hour, TTC staining, infarct volume); assay type: in vivo, rat; details: for inhibition effect of cerebral infarction: 30 minutes before MCAO (1 hour)
Description: A model of focal ischemic stroke in the rat according to the Longa's method (1989) was used. The animal model of stroke was established by occluding the middle cerebral artery (MCA) for 1 hour using nylon suture (middle cerebral artery occlusion, MCAO). In order to investigate the effect of pyruvate derivatives according to the present invention on cerebral ischemia, a rat was decapitated after reperfusion. The whole brain was sliced into 2 mm-thick coronal slices. The slices were immediately stained by immersing in 1% 2,3,5-triphenyl tetrazolium chloride (TTC). After keeping in 4% paraformaldehyde solution at 37° C. for 15 minutes, the brain slices were subjected to measurement and analysis using Quantity One software (Bio-Rad, Hercules, Calif., USA).

[2] = system: stroke animal model (ischemia-reperfusion); details: cited from earlier work
[3] = 1 mg/kg intravenously, 6 hours after reperfusion
[4] = 1 mg/kg intravenously, 12 hours after reperfusion
[5] = 5 mg/kg intravenously, 6 hours after reperfusion
[6] = 5 mg/kg intravenously, 12 hours after reperfusion
[7] = 10 mg/kg intravenously, 6 hours after reperfusion
[8] = 10 mg/kg intravenously, 12 hours after reperfusion

## CC(=O)C(=O)Oc1cc(C(F)(F)F)ccc1C(=O)O (as salt: potassium) [2-(2-oxopropanoyloxy)-4-(trifluoromethyl)benzoic acid]
other
  melting point: 163 °C

## CC(=O)C(=O)Oc1cc(C(F)(F)F)ccc1C(=O)O [2-(2-oxopropanoyloxy)-4-(trifluoromethyl)benzoic acid]
[1]; 5 mg/kg intravenously, MCAO 1 hour, time not stated in b180 (FIG. 8: 6 hours following MCAO)
  inhibition effect of cerebral infarction as compared to the control group: 71.3%

## CC(=O)C(=O)Oc1ccc(NCc2c(F)c(F)c(C(F)(F)F)c(F)c2F)cc1C(=O)O [2-(2-oxopropanoyloxy)-5-(2,3,5,6-tetrafluoro-4-(trifluoromethyl)benzylamino)benzoic acid]
[1]; 1 mg/kg intravenously
  inhibition effect of cerebral infarction: 20.2%
[1]; [3]
  change in the infarct volume: no change
[1]; [4]
  change in the infarct volume: no change
[1]; 5 mg/kg intravenously
  inhibition effect of cerebral infarction: 90.9%
[1]; [5]
  infarct volume reduced to, as compared to the control group: 24.5%
[1]; [6]
  infarct volume reduced to, as compared to the control group: 56.8%
[1]; 10 mg/kg intravenously
  inhibition effect of cerebral infarction: 88.4%
[1]; [7]
  infarct volume reduced to, as compared to the control group: 33.3%
[1]; [8]
  infarct volume reduced to, as compared to the control group: 62.4%
other
  melting point: 128 °C

## CC(=O)C(=O)Oc1ccccc1C(=O)O [2-(2-oxopropanoyloxy)benzoic acid]
[1]; 1 mg/kg intravenously
  inhibition effect of cerebral infarction: 42.0%
[1]; [3]
  change in the infarct volume: no change
[1]; [4]
  change in the infarct volume: no change
[1]; 5 mg/kg intravenously
  inhibition effect of cerebral infarction: 90.2%
[1]; [5]
  infarct volume reduced to, as compared to the control group: 47.5%
[1]; [6]
  infarct volume reduced to, as compared to the control group: 57.4%
[1]; 10 mg/kg intravenously
  inhibition effect of cerebral infarction: 89.5%
[1]; [7]
  infarct volume reduced to, as compared to the control group: 26.6%
[1]; [8]
  infarct volume reduced to, as compared to the control group: 64.3%

## CC(=O)C(=O)NCCC(Oc1ccc(C(F)(F)F)cc1)c1ccccc1 (stereo not shown) [2-oxo-N-(3-phenyl-3-(4-(trifluoromethyl)phenoxy)propyl)propanamide]
[1]; [7]
  infarct volume reduced to, as compared to the control group: 58.7%

## CC(=O)C(=O)N(C)CCC(Oc1ccc(C(F)(F)F)cc1)c1ccccc1 (stereo not shown) [N-methyl-2-oxo-N-(3-phenyl-3-(4-(trifluoromethyl)phenoxy)propyl)propanamide]
[1]; [7]
  infarct volume reduced to, as compared to the control group: 16.0%

## CCOC(=O)C(C)=O [ethyl pyruvate]
[2]; abdominally administered within 12 hours after ischemia-reperfusion
  infarct size reduced to: ≤ 50%
[2]; treatment within 24 hours
  infarct size reduced by: about 20%
